Counter-ions that a name gives are not always drawn.
Legend:
[1] = biological target: T1, recombinant guanylate cyclase reporter cell line (Rattus norvegicus, UniProt P19686+P20595); assay: Effect on a recombinant guanylate cyclase reporter cell line (B-2); type: cell-based; details: MEC = minimum effective concentration, in some cases mean values for individual determinations
T1 construct: expressed in transfected cells
T1 sequence (P19686 1-690): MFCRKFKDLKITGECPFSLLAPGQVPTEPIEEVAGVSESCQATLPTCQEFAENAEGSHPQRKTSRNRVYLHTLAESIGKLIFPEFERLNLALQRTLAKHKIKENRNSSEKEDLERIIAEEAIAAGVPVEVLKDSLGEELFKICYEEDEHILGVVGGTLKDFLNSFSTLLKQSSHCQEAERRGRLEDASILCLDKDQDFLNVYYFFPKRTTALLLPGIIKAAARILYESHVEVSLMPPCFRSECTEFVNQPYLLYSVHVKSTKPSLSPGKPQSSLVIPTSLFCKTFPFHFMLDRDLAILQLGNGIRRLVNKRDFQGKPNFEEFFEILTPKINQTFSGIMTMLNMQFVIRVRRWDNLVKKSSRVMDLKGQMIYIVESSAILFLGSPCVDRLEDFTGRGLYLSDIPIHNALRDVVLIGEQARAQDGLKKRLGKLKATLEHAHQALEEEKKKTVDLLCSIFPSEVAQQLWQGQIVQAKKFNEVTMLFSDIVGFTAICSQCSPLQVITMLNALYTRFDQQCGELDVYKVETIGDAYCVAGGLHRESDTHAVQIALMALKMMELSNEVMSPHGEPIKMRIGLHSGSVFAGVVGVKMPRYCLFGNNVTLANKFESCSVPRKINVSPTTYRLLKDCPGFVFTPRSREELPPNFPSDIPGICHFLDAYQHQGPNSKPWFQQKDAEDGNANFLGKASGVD
T1 sequence (P20595 1-619): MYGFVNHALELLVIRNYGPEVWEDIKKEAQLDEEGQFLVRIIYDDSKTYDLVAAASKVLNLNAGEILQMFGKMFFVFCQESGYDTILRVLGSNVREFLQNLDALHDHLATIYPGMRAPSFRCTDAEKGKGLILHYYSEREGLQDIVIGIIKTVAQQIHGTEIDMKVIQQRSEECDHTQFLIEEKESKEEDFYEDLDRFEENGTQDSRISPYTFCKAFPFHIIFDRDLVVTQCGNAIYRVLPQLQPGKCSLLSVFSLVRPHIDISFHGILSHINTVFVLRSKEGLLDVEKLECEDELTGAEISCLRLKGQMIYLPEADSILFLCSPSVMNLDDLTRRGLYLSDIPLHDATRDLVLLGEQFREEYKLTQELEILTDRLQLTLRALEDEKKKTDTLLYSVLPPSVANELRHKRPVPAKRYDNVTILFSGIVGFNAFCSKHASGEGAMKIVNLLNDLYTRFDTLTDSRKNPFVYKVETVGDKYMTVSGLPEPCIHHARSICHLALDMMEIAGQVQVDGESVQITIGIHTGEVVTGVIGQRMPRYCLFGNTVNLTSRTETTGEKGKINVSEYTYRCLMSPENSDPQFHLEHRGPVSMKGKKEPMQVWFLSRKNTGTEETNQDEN
Method: B-2. Effect on a Recombinant Guanylate Cyclase Reporter Cell Line
The cellular activity of the compounds according to the invention is determined using a recombinant guanylate cyclase reporter cell line, as described in F. Wunder et al., Anal. Biochem. 339, 104-112 (2005).
Representative MEC values (MEC=minimum effective concentration) for the compounds of the invention are shown in Table 1 below (in some cases as mean values for individual determinations): […]

[2] = biological target: T2, human phosphodiesterase 5 (PDE 5) (Homo sapiens, UniProt O76074); assay: Inhibition of human phosphodiesterase 5 (PDE 5) (B-3); type: biochemical; details: PDE 5 preparation from human platelets; [8-3H] cGMP substrate, SPA; in some cases means of individual determinations
T2 construct: PDE 5 preparations are obtained from human platelets by disruption; from tissue; host or cells: human platelets (Mono Q ion exchange fractions with PDE 5 activity)
Method: B-3. Inhibition of Human Phosphodiesterase 5 (PDE 5)
PDE 5 preparations are obtained from human platelets by disruption (Microfluidizer®, 800 bar, 3 passes), followed by centrifugation (75 000 g, 60 min, 4° C.) and ion exchange chromatography of the supernatant on a Mono Q 10/10 column (linear sodium chloride gradient, elution with a 0.2-0.3M solution of sodium chloride in buffer (20 mM Hepes pH 7.2, 2 mM magnesium chloride). Fractions having PDE 5 activity are combined (PDE 5 preparation) and stored at −80° C.
To determine their in vitro action on human PDE 5, the test substances are dissolved in 100% DMSO and serially diluted. Typically, dilution series (1:3) from 200 μM to 0.091 μM are prepared (resulting final concentrations in the test: 4 μM to 0.0018 μM). In each case 2 μl of the diluted substance solutions are placed into the wells of microtitre plates (Isoplate-96/200 W; Perkin Elmer). Subsequently, 50 μl of a dilution of the above-described PDE 5 preparation are added. The dilution of the PDE 5 preparation is chosen such that during the later incubation less than 70% of the substrate are converted (typical dilution: 1:100; dilution buffer: 50 mM tris/hydrochloric acid pH 7.5, 8.3 mM magnesium chloride, 1.7 mM EDTA, 0.2% BSA). The substrate, [8-^3H] cyclic guanosine-3′,5′-monophosphate (1 μCi/μl; Perkin Elmer), is diluted 1:2000 with assay buffer (50 mM tris/hydrochloric acid pH 7.5, 8.3 mM magnesium chloride, 1.7 mM EDTA) to a concentration of 0.0005 μCi/μl. By addition of 50 μl (0.025 μCi) of the diluted substrate, the enzyme reaction is finally started. The test mixtures are incubated at room temperature for 60 min and the reaction is stopped by adding 25 μl of a suspension of 18 mg/ml yttrium scintillation proximity beads in water (phosphodiesterase beads for SPA assays, RPNQ 0150, Perkin Elmer). The microtitre plates are sealed with a film and left to stand at room temperature for 60 min. Subsequently, the plates are analysed for 30 s per well in a Microbeta scintillation counter (Perkin Elmer). IC50 values are determined using the graphic plot of the substance concentration against percentage PDE 5 inhibition.

| Compound | MEC [1] [µM] | IC50 [2] [nM] |
| --- | --- | --- |
| Cc1nc2c(OCc3c(F)cccc3F)cccn2c1-c1nc2c(c(NC3CC(O)C3)n1)C(C)(C)C(=O)N2 (mixture of isomers) [Example 30, 2-{8-[(2,6-difluorobenzyl)oxy]-2-methylimidazo[1,2-a]pyridin-3-yl}-4-[(3-hydroxycyclobutyl)amino]-5,5-dimethyl-5,7-dihydro-6H-pyrrolo[2,3-d]pyrimidin-6-one [cis/trans mixture]] | 1 | 3.6 |
| Cc1nc2c(OCc3c(F)cccc3F)cccn2c1-c1nc(I)c2c(n1)NC(=O)C2(C)C(F)(F)F (racemic) [Example 7, rac-2-{8-[(2,6-Difluorobenzyl)oxy]-2-methylimidazo[1,2-a]pyridin-3-yl}-4-iodo-5-methyl-5-(trifluoromethyl)-5,7-dihydro-6H-pyrrolo[2,3-d]pyrimidin-6-one trifluoroacetate (racemate)] | 2 | 590 |
| Cc1nc2c(OCc3c(F)cccc3F)cccn2c1-c1nc(O)c2c(n1)NC(=O)C2(C)C(F)(F)F (racemic) [Example 8, rac-2-{8-[(2,6-Difluorobenzyl)oxy]-2-methylimidazo[1,2-a]pyridin-3-yl}-4-hydroxy-5-methyl-5-(trifluoromethyl)-5,7-dihydro-6H-pyrrolo[2,3-d]pyrimidin-6-one trifluoroacetate] | 1 | 120 |
| CCCC(C)(N)CNc1nc(-c2c(C)nc3c(OCc4c(F)cccc4F)cccn23)nc2c1C(C)(C)C(=O)N2 (racemic) [Example 13, rac-4-[(2-Amino-2-methylpentyl)amino]-2-{8-[(2,6-difluorobenzyl)oxy]-2-methylimidazo[1,2-a]pyridin-3-yl}-5,5-dimethyl-5,7-dihydro-6H-pyrrolo[2,3-d]pyrimidin-6-one (racemate)] | 1 | 12 |
| Cc1nc2c(OCc3c(F)cccc3F)cccn2c1-c1nc(NCC(O)C(F)(F)F)c2c(n1)NC(=O)C2(C)C (racemic) [Example 18, rac-2-{8-[(2,6-difluorobenzyl)oxy]-2-methylimidazo[1,2-a]pyridin-3-yl}-5,5-dimethyl-4-[(3,3,3-trifluoro-2-hydroxypropyl)amino]-5,7-dihydro-6H-pyrrolo[2,3-d]pyrimidin-6-one] | 1 | 19 |
| Cc1nc2c(OCc3c(F)ccc(F)c3F)cccn2c1-c1nc2c(c(C(=O)NCC(C)(N)C(F)(F)F)n1)C(C)(C)C(=O)N2 (racemic) [Example 57, rac-N-(2-amino-3,3,3-trifluoro-2-methylpropyl)-5,5-dimethyl-2-{2-methyl-8-[(2,3,6-trifluorobenzyl)oxy]imidazo[1,2-a]pyridin-3-yl}-6-oxo-6,7-dihydro-5H-pyrro1o[2,3-d]pyrimidine-4-carboxamide] | – | 3 |
| Cc1nc2c(OCc3c(F)ccc(F)c3F)cccn2c1-c1nc(NCC(C)(C)N)c2c(n1)NC(=O)C2(C)C [Example 31, 4-[(2-Amino-2-methylpropyl)amino]-5,5-dimethyl-2-{2-methyl-8-[(2,3,6-trifluorobenzyl)oxy]imidazo[1,2-a]pyridin-3-yl}-5,7-dihydro-6H-pyrrolo[2,3-d]pyrimidin-6-one formate] | – | 1.2 |
| Cc1nc2c(OCc3c(F)cccc3F)cccn2c1-c1nc2c(c(OCCO)n1)C(C)(C)C(=O)N2 [Example 47, 2-{8-[(2,6-Difluorobenzyl)oxy]-2-methylimidazo[1,2-a]pyridin-3-yl}-4-(2-hydroxyethoxy)-5,5-dimethyl-5,7-dihydro-6H-pyrrolo[2,3-d]pyrimidin-6-one] | 0.3 | – |

Continued, values first:

| MEC [1] [µM] | IC50 [2] [nM] | Compound |
| --- | --- | --- |
| – | 430 | Cc1nc2c(OCc3c(F)ccc(F)c3F)cccn2c1-c1nc(C#CC2CC2)c2c(n1)NC(=O)C2(C)C [Example 70, 4-(Cyclopropylethynyl)-5,5-dimethyl-2-{2-methyl-8-[(2,3,6-trifluorobenzyl)oxy]imidazo[1,2-a]pyridin-3-yl}-5,7-dihydro-6H-pyrrolo[2,3-d]pyrimidin-6-one] |
| – | 200 | Cc1nc2c(OCc3c(F)ccc(F)c3F)cccn2c1-c1nc(CCC2CC2)c2c(n1)NC(=O)C2(C)C [Example 71, 4-(2-Cyclopropylethyl)-5,5-dimethyl-2-{2-methyl-8-[(2,3,6-trifluorobenzyl)oxy]imidazo[1,2-a]pyridin-3-yl}-5,7-dihydro-6H-pyrrolo[2,3-d]pyrimidin-6-one] |
| 3 | – | CCCc1nc(-c2c(C)nc3c(OCc4c(F)ccc(F)c4F)cccn23)nc2c1C(C)(C)C(=O)N2 [Example 72, 5,5-Dimethyl-2-{2-methyl-8-[(2,3,6-trifluorobenzyl)oxy]imidazo[1,2-a]pyridin-3-yl}-4-propyl-5,7-dihydro-6H-pyrrolo[2,3-d]pyrimidin-6-one] |
| – | 22 | Cc1ncc(-c2nc(-c3c(C)nc4c(OCc5c(F)ccc(F)c5F)cccn34)nc3c2C(C)(C)C(=O)N3)s1 [Example 73, 5,5-Dimethyl-4-(2-methyl-1,3-thiazol-5-yl)-2-{2-methyl-8-[(2,3,6-trifluorobenzyl)oxy]imidazo[1,2-a]pyridin-3-yl}-5,7-dihydro-6H-pyrrolo[2,3-d]pyrimidin-6-one] |
| – | 46 | Cc1nc2c(OCc3c(F)ccc(F)c3F)cccn2c1-c1nc2c(c(OCC3CC3)n1)C(C)(C)C(=O)N2 [Example 76, 4-(Cyclopropylmethoxy)-5,5-dimethyl-2-{2-methyl-8-[(2,3,6-trifluorobenzyl)oxy]imidazo[1,2-a]pyridin-3-yl}-5,7-dihydro-6H-pyrrolo[2,3-d]pyrimidin-6-one] |
| – | 140 | Cc1nc2c(OCc3c(F)ccc(F)c3F)cccn2c1-c1nc2c(c(OCCC(F)(F)F)n1)C(C)(C)C(=O)N2 [Example 77, 5,5-Dimethyl-2-{2-methyl-8-[(2,3,6-trifluorobenzyl)oxy]imidazo[1,2-a]pyridin-3-yl}-4-(3,3,3-trifluoropropoxy)-5,7-dihydro-6H-pyrrolo[2,3-d]pyrimidin-6-one] |
